How the values were obtained:
[1] = biological target: T1, 20S Human Erythrocyte Proteasome (HEP) (Homo sapiens, UniProt P20618+P28074); test: Chymotrypsin-like activity of 20S Human Erythrocyte Proteasome (HEP), IC50 determination; assay type: biochemical; settings: assay of Example C, inhibition of HEP
T1 construct: 20S Human Erythrocyte Proteasome (HEP), purchased from Immatics Biotechnologies Inc; purchased Immatics Biotechnologies Inc., Tübingen, Germany; host or cells: human erythrocytes (natural source)
Summary of the method: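 20S proteasome at 0.2 μg/mL (about 0.6 nM catalytic sites) in 20 mM Tris with 0.04% SDS, preincubated 15 min at 37° C with inhibitor before Suc-LLVY-AMC (100 μM final). AMC fluorescence read in the linear range; triplicates, IC50 from concentration series.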

[2] = biological target: T2, proteasome in Molt-4 cells (human leukemia) (Homo sapiens, UniProt P20618+P28074); assay type: cell-based; settings: assay of Example E, inhibition of MOLT4; read-out: MOLT4 (EC50)
T2 sequence (P28074 60-263): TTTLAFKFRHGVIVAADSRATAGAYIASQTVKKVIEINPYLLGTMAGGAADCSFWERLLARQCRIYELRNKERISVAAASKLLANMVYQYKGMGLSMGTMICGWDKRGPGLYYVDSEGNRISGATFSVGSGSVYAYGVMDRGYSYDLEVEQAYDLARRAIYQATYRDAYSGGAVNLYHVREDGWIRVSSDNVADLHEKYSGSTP
T2 sequence (P20618 29-241): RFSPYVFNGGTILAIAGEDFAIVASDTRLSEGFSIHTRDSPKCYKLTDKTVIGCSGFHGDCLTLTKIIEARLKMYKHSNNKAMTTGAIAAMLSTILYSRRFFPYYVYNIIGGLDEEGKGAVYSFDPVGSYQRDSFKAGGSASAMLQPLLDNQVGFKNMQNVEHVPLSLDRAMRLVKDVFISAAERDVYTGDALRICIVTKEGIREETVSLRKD
Summary of the method: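 Intact Molt-4 cells (6×10^6 cells/mL) in HEPES-buffered saline were preincubated with inhibitor 15 min at 37 °C, then given cell-permeable MeOSuc-FLF-AFC at 25 μM final.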

Row | IC50 [1] | EC50 [2] | SMILES
1 | < 10 nM | > 10000 nM | CC(C)C[C@H](NC(=O)[C@H](CCCNC(=N)N[N+](=O)[O-])NC(=O)c1cccs1)B(O)O [E.2.10, Boronic acid, [(1R)-1-[[(2S)-5-[[imino(nitroamino)methyl]amino]-2-[(2-thiophenecarbonyl)amino]-1-oxopentyl]amino]-3-methylbutyl]]
2 | < 10 nM | > 10000 nM | CC(C)C[C@H](NC(=O)[C@H](CCCNC(=N)N[N+](=O)[O-])NC(=O)c1cccc(F)c1F)B(O)O [E.2.11, Boronic acid, [(1R)-1-[[(2S)-5-[[imino(nitroamino)methyl]amino]-2-[(2,3-difluorobenzoyl)amino]-1-oxopentyl]amino]-3-methylbutyl]]
3 | < 10 nM | < 200 nM | CCCCCCCCCCCC(=O)N[C@@H](CCCNC(=N)N[N+](=O)[O-])C(=O)N[C@@H](CC(C)C)B(O)O [E.2.12, Boronic acid, [(1R)-1-[[(2S)-5-[[imino(nitroamino)methyl]amino]-2-[(dodecanoyl)amino]-1-oxopentyl]amino]-3-methylbutyl]]
4 | < 10 nM | 2000 to 10000 nM | CC(C)C[C@H](NC(=O)[C@H](CCCNC(=N)N[N+](=O)[O-])NC(=O)Cc1ccccc1I)B(O)O [E.2.13, Boronic acid, [(1R)-1-[[(2S)-5-[[imino(nitroamino)methyl]amino]-2-[[2-(2-iodophenyl)acetyl]amino]-1-oxopentyl]amino]-3-methylbutyl]]
5 | < 10 nM | > 10000 nM | CC(C)C[C@H](NC(=O)[C@H](CCCNC(=N)N[N+](=O)[O-])NC(=O)C1CCCCC1)B(O)O [E.2.14, Boronic acid, [(1R)-1-[[(2S)-5-[[imino(nitroamino)methyl]amino]-2-[(cyclohexanecarbonyl)amino]-1-oxopentyl]amino]-3-methylbutyl]]
6 | < 10 nM | > 10000 nM | Cc1ccccc1C(=O)N[C@@H](CCCNC(=N)N[N+](=O)[O-])C(=O)N[C@@H](CC(C)C)B(O)O [E.2.15, Boronic acid, [(1R)-1-[[(2S)-5-[[imino(nitroamino)methyl]amino]-2-[(2-methylbenzoyl)amino]-1-oxopentyl]amino]-3-methylbutyl]]
7 | < 10 nM | > 10000 nM | CC(C)C[C@H](NC(=O)[C@H](CCCNC(=N)N[N+](=O)[O-])NC(=O)[C@@H](C)c1ccccc1)B(O)O [E.2.16, Boronic acid, [(1R)-1-[[(2S)-5-[[imino(nitroamino)methyl]amino]-2-[((2S)-2-phenylpropanoyl)amino]-1-oxopentyl]amino]-3-methylbutyl]]
8 | < 10 nM | 2000 to 10000 nM | CC(C)C[C@H](NC(=O)[C@H](CCCNC(=N)N[N+](=O)[O-])NC(=O)c1ccc2ccccc2n1)B(O)O [E.2.18, Boronic acid, [(1R)-1-[[(2S)-5-[[imino(nitroamino)methyl]amino]-2-[(quinoline-2-carbonyl)amino]-1-oxopentyl]amino]-3-methylbutyl]]
9 | < 10 nM | 2000 to 10000 nM | CCCCCC/C=C/C(=O)N[C@@H](CCCNC(=N)N[N+](=O)[O-])C(=O)N[C@@H](CC(C)C)B(O)O [E.2.19, Boronic acid, [(1R)-1-[[(2S)-5-[[imino(nitroamino)methyl]amino]-2-[(non-2-enoyl)amino]-1-oxopentyl]amino]-3-methylbutyl]]
10 | < 10 nM | 2000 to 10000 nM | CC(C)C[C@H](NC(=O)[C@H](CCCNC(=N)N[N+](=O)[O-])NC(=O)C1CCCCC1C)B(O)O (stereo partly drawn) [E.2.20, Boronic acid, [(1R)-1-[[(2S)-5-[[imino(nitroamino)methyl]amino]-2-[(2-methylcyclohexanecarbonyl)amino]-1-oxopentyl]amino]-3-methylbutyl]]
11 | < 10 nM | 2000 to 10000 nM | CCCC/C=C/C(=O)N[C@@H](CCCNC(=N)N[N+](=O)[O-])C(=O)N[C@@H](CC(C)C)B(O)O [E.2.21, Boronic acid, [(1R)-1-[[(2S)-5-[[imino(nitroamino)methyl]amino]-2-[(hept-2-enoyl)amino]-1-oxopentyl]amino]-3-methylbutyl]]
12 | < 10 nM | 200 to 2000 nM | Cc1ccc(OCC(=O)N[C@@H](CCCNC(=N)N[N+](=O)[O-])C(=O)N[C@@H](CC(C)C)B(O)O)cc1C [E.2.22, Boronic acid, [(1R)-1-[[(2S)-5-[[imino(nitroamino)methyl]amino]-2-[[2-(3,4-dimethylphenoxy)acetyl]amino]-1-oxopentyl]amino]-3-methylbutyl]]

More lines, now with the values behind:

Row | SMILES | IC50 [1] | EC50 [2]
13 | CCCCc1ccc(C(=O)N[C@@H](CC(N)=O)C(=O)N[C@@H](CC(C)C)B(O)O)cc1 [E.1.28, Boronic acid, [(1R)-1-[[(2S)-3-carbamoyl-2-[4-butyl(benzoyl)amino]-1-oxopropyl]amino]-3-methylbutyl]] | < 10 nM | 200 to 2000 nM
14 | CCCCCCCCCC(=O)N[C@@H](CCCNC(N)=O)C(=O)N[C@@H](CC(C)C)B(O)O [E.1.29, Boronic acid, [(1R)-1-[[(2S)-2-[(decanoyl)amino]-1-oxo-5-ureido-pentyl]amino]-3-methylbutyl]] | < 10 nM | 200 to 2000 nM
15 | CCCCc1ccc(C(=O)N[C@@H](CCCNC(N)=O)C(=O)N[C@@H](CC(C)C)B(O)O)cc1 [E.1.30, Boronic acid, [(1R)-1-[[(2S)-2-[(4-butylbenzoyl)amino]-1-oxo-5-ureido-pentyl]amino]-3-methylbutyl]] | < 10 nM | 2000 to 10000 nM
16 | CCCCCCCCCC(=O)N[C@@H](CCCNC(=N)N[N+](=O)[O-])C(=O)N[C@@H](CC(C)C)B(O)O [E.2.1, Boronic acid, [(1R)-1-[[(2S)-5-[[imino(nitroamino)methyl]amino]-2-[(1-oxodecyl)amino]-1-oxopentyl]amino]-3-methylbutyl]] | < 10 nM | < 200 nM
17 | CCCCCCCC(=O)N[C@@H](CCCNC(=N)N[N+](=O)[O-])C(=O)N[C@@H](CC(C)C)B(O)O [E.2.2, Boronic acid, [(1R)-1-[[(2S)-5-[[imino(nitroamino)methyl]amino]-2-[(octanoyl)amino]-1-oxopentyl]amino]-3-methylbutyl]] | < 10 nM | 200 to 2000 nM
18 | CC(C)C[C@H](NC(=O)[C@H](CCCNC(=N)N[N+](=O)[O-])NC(=O)C1(c2ccccc2)CCCC1)B(O)O [E.2.3, Boronic acid, [(1R)-1-[[(2S)-5-[[imino(nitroamino)methyl]amino]-2-[(1-phenylcyclopentanecarbnyl)amino]-1-oxopentyl]amino]-3-methylbutyl]] | < 10 nM | 2000 to 10000 nM
19 | CC[C@@H](C(=O)N[C@@H](CCCNC(=N)N[N+](=O)[O-])C(=O)N[C@@H](CC(C)C)B(O)O)c1ccccc1 [E.2.4, Boronic acid, [(1R)-1-[[(2S)-5-[[imino(nitroamino)methyl]amino]-2-[((2R)-2-phenylbutanoyl)amino]-1-oxopentyl]amino]-3-methylbutyl]] | < 10 nM | > 10000 nM
20 | CC(C)C[C@H](NC(=O)[C@H](CCCNC(=N)N[N+](=O)[O-])NC(=O)C1CCC(C(C)(C)C)CC1)B(O)O (stereo partly drawn) [E.2.5, Boronic acid, [(1R)-1-[[(2S)-5-[[imino(nitroamino)methyl]amino]-2-[[4-(1,1-Dimethylethyl)cyclohexanecarbonyl]amino]-1-oxopentyl]amino]-3-methylbutyl]] | < 10 nM | 2000 to 10000 nM
21 | CCCCC[C@H]1CC[C@H](C(=O)N[C@@H](CCCNC(=N)N[N+](=O)[O-])C(=O)N[C@@H](CC(C)C)B(O)O)CC1 [E.2.6, Boronic acid, [(1R)-1-[[(2S)-5-[[imino(nitroamino)methyl]amino]-2-[(trans-4-pentylcyclohexanecarbonyl)amino]-1-oxopentyl]amino]-3-methylbutyl]] | < 10 nM | 200 to 2000 nM
22 | CC(C)C[C@H](NC(=O)[C@H](CCCNC(=N)N[N+](=O)[O-])NC(=O)CCCc1ccccc1)B(O)O [E.2.7, Boronic acid, [(1R)-1-[[(2S)-5-[[imino(nitroamino)methyl]amino]-2-[(4-phenylbutanoyl)amino]-1-oxopentyl]amino]-3-methylbutyl]] | < 10 nM | 2000 to 10000 nM
23 | CC(C)C[C@H](NC(=O)[C@H](CCCNC(=N)N[N+](=O)[O-])NC(=O)c1ccc(C(C)(C)C)cc1)B(O)O [E.2.8, Boronic acid, [(1R)-1-[[(2S)-5-[[imino(nitroamino)methyl]amino]-2-[(4-(1,1-dimethylethyl)benzoyl)amino]-1-oxopentyl]amino]-3-methylbutyl]] | < 10 nM | 2000 to 10000 nM
24 | CCCCCCCCC(=O)N[C@@H](CCCNC(=N)N[N+](=O)[O-])C(=O)N[C@@H](CC(C)C)B(O)O [E.2.9, Boronic acid, [(1R)-1-[[(2S)-5-[[imino(nitroamino)methyl]amino]-2-[(nonanoyl)amino]-1-oxopentyl]amino]-3-methylbutyl]] | < 10 nM | 200 to 2000 nM

— US8546608B2, “Proteasome inhibitors and methods of using the same” (Cephalon, Inc., priority 2003, dated 2013)
